Assay results reported in publication PMC10125213 (Journal of Molecular Biology, 2023).
Like-named read-outs stand apart in the source and are kept apart here.

Columns and labels:
WT S protein = WT S protein (Severe acute respiratory syndrome coronavirus 2, UniProt P0DTC2); experiment: biochemical; type: binding
WT RBD = WT RBD (Severe acute respiratory syndrome coronavirus 2, UniProt P0DTC2); type: binding

## N[C@@H](CCC(=O)N[C@@H](CS)C(=O)NCC(=O)O)C(=O)O [GSH, reduced glutathione]
WT S protein
  effects on WT S protein: did not exhibit any effects

## NCCCNCCS [WR1065]
WT S protein; IC50, 37 °C 60 min
  IC50: 1 to 10 mM

## CC(=O)N[C@@H](CS)C(=O)O [NAC, N-acetylcysteine]
WT S protein; 37 °C 60 min
  effects on WT S protein: did not exhibit any effects

## O=C(O)CCP(CCC(=O)O)CCC(=O)O [TCEP, tris-(2-carboxyethyl)phosphine]
WT RBD
  effect on WT RBD: marginal effect
